From patent US4714765A, “Rhodanine derivatives and process for preparing the same” (Taiho Pharmaceutical Company, Limited, priority 1985, dated 1987)

Target: T1, Rat Lens Aldose Reductase (Rattus norvegicus, UniProt P07943)
T1 construct: The lenses were then homogenized in cold distilled water; from tissue; host or cells: lens of Sprague-Dawley rats, supernatant of homogenate (10,000 rpm, 10 min)
Assay: Aldose reductase inhibitory activity (Rat Lens Aldose Reductase)
Assay type: biochemical, rat (Sprague-Dawley)
Details: rat lens homogenate supernatant; glyceraldehyde as substrate; decrease in NADPH at 340 nm; read-out: IC50 (concentration of the test compound at which 50% inhibition of aldose reductase is achieved)
Method: Aldose reductase inhibitory activity
Rat Lens Aldose Reductase:
This test was conducted according to the method described in J. Biol. Chem., 240, 877 (1965).
Sprague-Dawley rats weighing 100 to 150 g were suffocated with carbon dioxide and the lenses were carefully removed. The lenses were then homogenized in cold distilled water (0.4 ml/lens) and the homogenate was centrifuged at 10,000 rpm for 10 min. The enzyme, i.e. aldose reductase was spectrophotometrically measured by following the decrease in NADPH at 340 nm with glyceraldehyde as substrate. An IC50 i.e., a concentration of the test compound at which 50% inhibition of aldose reductase is achieved was calculated from estimated dose-response curves.

An IC50 of 4000 nM was found for Cc1cc(C=CC=C2SC(=S)NC2=O)on1 [Compound 1a, 5-[3-(3-methyl-5-isoxazolyl)-1,3-propanediene]rhodanine] in this work.

An IC50 of 130 nM was found for Cc1cc(C=CC=C2SC(=S)N(CC(=O)O)C2=O)on1 [Compound 1b] in this work.

An IC50 of 640 nM was found for Cc1cc(CC2SC(=S)N(CC(=O)O)C2=O)on1 (stereo not drawn) [Compound 1g, 5-(3-methyl-5-isoxazolylmethyl)rhodanine-3-acetic acid] in this work.
